Results on twelve molecules are retold here after patent US9056851B2, “Thiolactone antibiotics” (priority 2011, dated 2015).

In one experiment the test system is Y. pestis A1122. As to the kind of experiment: microbe, parasite or virus in culture. Format: cell-based. The note with it: Yersinia pestis, A1122, read-out: MIC (μg/ml) Y. pestis.
For the next experiment, the system named is B. thialandensis Bt38. Put plainly: MIC against B. thialandensis. Type of experiment: cell-based. The conditions noted are these: read-out: MIC (μg/ml) B. thialandensis Bt.38 (efflux^−).
Another experiment concerns M. smegmatis MC^2155. Put plainly: MIC against M. smegmatis. The conditions noted are these: Mycolicibacterium smegmatis, MC^2155; MIC90; read-out: MIC (μg/ml) M. smeg. Type of experiment: cell-based.
A further experiment deals with F. tularensis LVS. Put plainly: microbe, parasite or virus in culture. Type of experiment: cell-based. The note with it: Francisella tularensis, read-out: MIC (μg/ml) F. tu.
For the next experiment, the system named is M. tuberculosis H37Rv. As to the kind of experiment: MIC against M. tuberculosis. Type of experiment: cell-based. The conditions noted are these: Mycobacterium tuberculosis; MIC99; H37Rv; read-out: MIC (μg/ml) M. tb (MIC99).
Another experiment relates to S. aureus RN4220. As to the kind of experiment: MIC against S. aureus RN4220 (MSSA). Format: cell-based. The note with it: Staphylococcus aureus, MIC90, read-out: MIC (μg/ml) Staph. aureus RN4220 MSSA.
The test system of the next experiment is S. aureus BAA1762. Put plainly: MIC against S. aureus BAA1762 (MRSA). The note with it: Staphylococcus aureus; MIC90; read-out: MIC (μg/ml) Staph. aureus BAA1762 MRSA. Type of experiment: cell-based.
A further experiment has as its target wild-type apo-KasA (Mycobacterium tuberculosis, UniProt P9WQD9). As to the kind of experiment: biochemical. Format: binding.
For a further experiment, the system named is B. pseudomallei Bp82z66. As to the kind of experiment: microbe, parasite or virus in culture. Type of experiment: cell-based. The conditions noted are these: Burkholderia pseudomallei, BP82Z66, read-out: MIC (μg/ml) B. pseudomallei.

Converted amounts (≈) assume the structure as drawn. Where only a bound is given, the exact number is not on record here.

wild-type apo-KasA, sequence (P9WQD9 whole entry): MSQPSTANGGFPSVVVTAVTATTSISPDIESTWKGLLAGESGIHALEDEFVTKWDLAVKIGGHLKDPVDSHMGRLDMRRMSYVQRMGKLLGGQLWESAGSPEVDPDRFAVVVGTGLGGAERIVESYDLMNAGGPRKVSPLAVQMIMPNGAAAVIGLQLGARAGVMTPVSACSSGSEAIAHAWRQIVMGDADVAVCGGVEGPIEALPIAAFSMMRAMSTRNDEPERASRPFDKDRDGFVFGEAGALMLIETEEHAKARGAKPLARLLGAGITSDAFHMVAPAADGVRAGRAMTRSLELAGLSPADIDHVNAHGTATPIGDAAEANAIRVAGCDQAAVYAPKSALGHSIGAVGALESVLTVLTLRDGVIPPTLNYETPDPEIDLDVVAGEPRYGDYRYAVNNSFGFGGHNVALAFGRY

In the case of `C=C/C(C)=C/[C@@]1(C)SC(=O)C=C1O` [TLM2, 5R-(+)-3-Demethylthiolactomycin], the MIC is 250 µg/mL (≈ 1270 µM) in the experiment on Y. pestis A1122; 148 µg/mL (≈ 756 µM) in the experiment on B. thialandensis Bt38; over 100 µg/mL with M. smegmatis MC^2155; 124 µg/mL (≈ 631 µM) with F. tularensis LVS; 150 µg/mL (≈ 764 µM) in the experiment with S. aureus RN4220; 100 µg/mL (≈ 509 µM) with S. aureus BAA1762. Further, the MIC99 in the experiment on M. tuberculosis H37Rv was over 100 µg/mL.

As for `C=C/C(C)=C/[C@@]1(C)SC(=O)C(CC)=C1O` [TLM3, 5R-(+)-3-Ethylthiolactomycin], the MIC was 145 µg/mL (≈ 645 µM) in the experiment with Y. pestis A1122; 148 µg/mL (≈ 661 µM) in the experiment on B. thialandensis Bt38; over 100 µg/mL in the experiment with M. smegmatis MC^2155; 6.9 µg/mL (≈ 30.8 µM) in the experiment with F. tularensis LVS; 150 µg/mL (≈ 669 µM) with S. aureus RN4220; 125 µg/mL (≈ 557 µM) with S. aureus BAA1762. Besides, the MIC99 in the experiment on M. tuberculosis H37Rv is under 7.8 µg/mL.

Regarding `C=C/C(C)=C/[C@@]1(C)SC(=O)C(CCC)=C1O` [TLM4, 5R-(+)-3-Propylthiolactomycin], the MIC in the experiment on Y. pestis A1122 was 250 µg/mL (≈ 1050 µM); in the experiment with B. thialandensis Bt38, 250 µg/mL (≈ 1050 µM); with M. smegmatis MC^2155, over 100 µg/mL; with F. tularensis LVS, 25.8 µg/mL (≈ 108 µM); with S. aureus RN4220 it was over 200 µg/mL; with S. aureus BAA1762, over 200 µg/mL. The MIC99 in the experiment with M. tuberculosis H37Rv came out at 12.5 µg/mL (≈ 52.4 µM).

As to `C=C/C(C)=C/[C@@]1(C)SC(=O)C(CCc2ccc(C)cc2)=C1O` [TLM5], the MIC in the experiment with Y. pestis A1122 was 250 µg/mL (≈ 795 µM); in the experiment with B. thialandensis Bt38, 250 µg/mL (≈ 795 µM); in the experiment with M. smegmatis MC^2155 it was over 100 µg/mL; in the experiment with F. tularensis LVS, 3.45 µg/mL (≈ 11 µM); in the experiment on S. aureus RN4220, over 64 µg/mL; in the experiment on S. aureus BAA1762, over 100 µg/mL. Further, in the experiment on M. tuberculosis H37Rv, the MIC99 turned out to be 25 µg/mL (≈ 79.5 µM).

In the case of `C=C/C(C)=C/[C@@]1(C)SC(=O)C(CCCCc2ccc(F)cc2)=C1O` [TLM6], the MIC in the experiment on Y. pestis A1122 is 250 µg/mL (≈ 722 µM); with B. thialandensis Bt38, 250 µg/mL (≈ 722 µM); with M. smegmatis MC^2155, over 100 µg/mL; in the experiment on F. tularensis LVS, 3.15 µg/mL (≈ 9.1 µM); with S. aureus RN4220, over 64 µg/mL; with S. aureus BAA1762, 75 µg/mL (≈ 216 µM). For the same molecule, the MIC99 in the experiment with M. tuberculosis H37Rv was found to be 25 µg/mL (≈ 72.2 µM).

Turning to `C=C/C(C)=C/[C@@]1(C)SC(=O)C(CCCCc2ccc(Cl)cc2)=C1O` [TLM7], the MIC with Y. pestis A1122 is 250 µg/mL (≈ 689 µM); with B. thialandensis Bt38, 81 µg/mL (≈ 223 µM); in the experiment on M. smegmatis MC^2155, over 100 µg/mL; in the experiment with F. tularensis LVS, 1.73 µg/mL (≈ 4.77 µM); with S. aureus RN4220, 64 µg/mL (≈ 176 µM); with S. aureus BAA1762, 50 µg/mL (≈ 138 µM). Also, in the experiment with M. tuberculosis H37Rv, the MIC99 was determined as 25 µg/mL (≈ 68.9 µM).

On to `C=C/C(C)=C/[C@@]1(C)SC(=O)C(CCCCc2ccc(Br)cc2)=C1O` [TLM8], for which the MIC is 250 µg/mL (≈ 614 µM) with Y. pestis A1122; 126 µg/mL (≈ 309 µM) in the experiment with B. thialandensis Bt38; over 100 µg/mL in the experiment on M. smegmatis MC^2155; 2.17 µg/mL (≈ 5.33 µM) with F. tularensis LVS; 32 µg/mL (≈ 78.6 µM) in the experiment with S. aureus RN4220; 50 µg/mL (≈ 123 µM) in the experiment on S. aureus BAA1762. Further, the MIC99 in the experiment with M. tuberculosis H37Rv worked out at 25 µg/mL (≈ 61.4 µM).

For the molecule `C=C/C(C)=C/[C@@]1(C)SC(=O)C(CCCCc2ccc(-c3ccccc3)cc2)=C1O` [TLM9], the MIC came out at 250 µg/mL (≈ 618 µM) in the experiment on Y. pestis A1122; 145 µg/mL (≈ 359 µM) in the experiment with B. thialandensis Bt38; 1.97 µg/mL (≈ 4.88 µM) in the experiment with F. tularensis LVS; 16 µg/mL (≈ 39.5 µM) in the experiment with S. aureus RN4220; 25 µg/mL (≈ 61.8 µM) in the experiment with S. aureus BAA1762. Further, the MIC99 in the experiment on M. tuberculosis H37Rv amounted to 50 µg/mL (≈ 124 µM).

In general, Ki refers to a dissociation constant, usually derived from enzyme kinetics or from competition with a known ligand. As a reminder, the Kd is the free concentration of one partner at which half of the binding sites on the other are occupied at equilibrium, for simple one-to-one binding. As to `C=C/C(C)=C/[C@@]1(C)SC(=O)C(CCCN=[N+]=[N-])=C1O` [TLM10], the MIC in the experiment with Y. pestis A1122 was 250 µg/mL (≈ 895 µM); with B. thialandensis Bt38, 250 µg/mL (≈ 895 µM); in the experiment with F. tularensis LVS, 23.5 µg/mL (≈ 84.1 µM); in the experiment with S. aureus RN4220, over 64 µg/mL; with S. aureus BAA1762 it was over 100 µg/mL. The MIC99 in the experiment on M. tuberculosis H37Rv came out at 12.5 µg/mL (≈ 44.7 µM). The molecule also showed a Ki on wild-type apo-KasA of 233 ± 7 µM. At wild-type apo-KasA (Kd (μM) apo-KasA, Table 1, wild-type apo-KasA, fluorescence spectroscopy), this molecule displayed a Kd of 233 ± 7 µM.

Regarding `C=C/C(C)=C/[C@@]1(C)SC(=O)C=C1OCC(=O)NCCn1cc(CNC(=O)[C@H](O)C(C)(C)CO)nn1` [TLM26], the MIC was 150 µg/mL (≈ 295 µM) with B. pseudomallei Bp82z66, 159 µg/mL (≈ 313 µM) in the experiment with F. tularensis LVS, over 64 µg/mL in the experiment on S. aureus RN4220 and over 64 µg/mL in the experiment on S. aureus BAA1762. Besides, in the experiment with M. tuberculosis H37Rv, the MIC99 is over 100 µg/mL.

Turning to `C=C/C(C)=C/[C@@]1(C)SC(=O)C(CCc2ccc(Cl)cc2)=C1O` [TLM31], the MIC in the experiment with Y. pestis A1122 is 250 µg/mL (≈ 747 µM); with B. thialandensis Bt38 it was 250 µg/mL (≈ 747 µM); in the experiment on F. tularensis LVS, 3.1 µg/mL (≈ 9.24 µM); in the experiment with S. aureus RN4220, 64 µg/mL (≈ 191 µM); with S. aureus BAA1762, 100 µg/mL (≈ 299 µM). Further, in the experiment with M. tuberculosis H37Rv, the MIC99 is 25 µg/mL (≈ 74.7 µM).

Take `C=C/C(C)=C/[C@@]1(C)SC(=O)C(CCCCN=[N+]=[N-])=C1O` [TLM32]: the MIC was 250 µg/mL (≈ 852 µM) in the experiment with Y. pestis A1122; 250 µg/mL (≈ 852 µM) with B. thialandensis Bt38; 15.3 µg/mL (≈ 52.3 µM) in the experiment on F. tularensis LVS; over 64 µg/mL in the experiment with S. aureus RN4220; over 100 µg/mL in the experiment with S. aureus BAA1762. In addition, in the experiment on M. tuberculosis H37Rv, the MIC99 turned out to be 50 µg/mL (≈ 170 µM).
